Source: US20190038611A1, “Novel CYP34A-Specific Inhibitors and Methods of Using Same” (THE REGENTS OF THE UNIVERSITY OF CALIFORNIA, priority 2015, published 2019)
Several values for one entry are separate records, joined by “and”; a condition that tells them apart may be missing. Equal values may be shown once. Read-outs that look alike come from different tables or passages of the source.

How the values were obtained:
CYP3A4 [1] = target: T1, CYP3A4 (Homo sapiens, UniProt P08684); assay: Inhibition of BFC O-debenzylation activity of CYP3A4 in a reconstituted system with rat cytochrome P450 reductase
Experimental: (§1) Thermal denaturation experiments were conducted as previously described (Sevrioukova and Poulos, 2013 J. Med. Chem. 56: 3733-41) to compare ligand-dependent changes in CYP3A4 stability. The inhibitory potency of the investigated compounds on the 7-benzyloxy-4-(trifluoromethyl)coumarin (BFC) O-debenzylation activity of CYP3A4 was evaluated fluorometrically in a reconstituted system with rat cytochrome P450 reductase (CPR). The reaction was carried out at room temperature in 100 mM phosphate buffer, pH 7.4, containing catalase and superoxide dismutase (2 Units/ml each). A mixture of 1 μM CYP3A4 and 1 μM CPR was preincubated for 1 hour at room temperature and diluted by 20-fold with the assay buffer immediately before measurements. BFC (50 μM) and various concentrations of analogs were added to the protein mixture 2 minutes prior to the reaction initiation with 100 μM NADPH. Formation of 7-hydroxy-4-trifluoromethylcoumarin was followed in a Hitachi F100 fluorometer using λex=430 nm and λem=500 nm. IC50 values were derived from the [% activity] vs. [inhibitor] plots.

CYP3A4 [2] = target: T1, CYP3A4; assay: Spectral binding titrations (equilibrium titration of CYP3A4, spectral dissociation constant); design: 4-histidine tag (C); made in house; host or cells: E. coli
Experimental: Left insets depict difference spectra between the ligand-free and inhibitor-bound forms. Right insets are plots of the absorbance change versus inhibitor concentration, based on which the Kd values were calculated.

CYP3A4 [3] = target: T1, CYP3A4; assay: Kinetics of ligand binding to CYP3A4 (stopped flow); settings: for kfast (rate constant for the fast phase of the binding reaction): saturating ligand concentrations, room temperature, 2 μM CYP3A4
Experimental: Kinetics of ligand binding to CYP3A4 was monitored at room temperature in 50 mM phosphate, pH 7.4, in a SX.18MV stopped flow apparatus (Applied Photophysics,
UK) after mixing 2 μM CYP3A4 with various concentrations of ligands. […] Kinetic data were analyzed using the program IgorPro (WaveMetrics, Inc).

CYP3A4 [4] = target: T1, CYP3A4; assay: 442 nm peak in the absorbance spectrum of ligand-bound ferrous CYP3A4
CYP3A4 [5] = target: T1, CYP3A4; assay: Thermal denaturation (ligand-dependent changes in CYP3A4 melting temperature); assay type: binding; design: 4-histidine tag (C); made in house; host or cells: E. coli
Experimental: as §1

CYP3A4 [6] = target: T1, CYP3A4
CYP3A4 [7] = target: T1, CYP3A4; remark: listed apart in the source
Experimental: as §1

[8] = read-out: IC50 (concentration required for half-maximal inactivation of recombinant CYP3A4), BFC 50 μM, 100 μM NADPH, room temperature, pH 7.4
[9] = 50 mM phosphate pH 7.4, 20% glycerol, 1 mM dithiothreitol, single site, read-out: Ks (spectral dissociation constant)

T1 sequence (P08684 with tags, fused parts or gaps): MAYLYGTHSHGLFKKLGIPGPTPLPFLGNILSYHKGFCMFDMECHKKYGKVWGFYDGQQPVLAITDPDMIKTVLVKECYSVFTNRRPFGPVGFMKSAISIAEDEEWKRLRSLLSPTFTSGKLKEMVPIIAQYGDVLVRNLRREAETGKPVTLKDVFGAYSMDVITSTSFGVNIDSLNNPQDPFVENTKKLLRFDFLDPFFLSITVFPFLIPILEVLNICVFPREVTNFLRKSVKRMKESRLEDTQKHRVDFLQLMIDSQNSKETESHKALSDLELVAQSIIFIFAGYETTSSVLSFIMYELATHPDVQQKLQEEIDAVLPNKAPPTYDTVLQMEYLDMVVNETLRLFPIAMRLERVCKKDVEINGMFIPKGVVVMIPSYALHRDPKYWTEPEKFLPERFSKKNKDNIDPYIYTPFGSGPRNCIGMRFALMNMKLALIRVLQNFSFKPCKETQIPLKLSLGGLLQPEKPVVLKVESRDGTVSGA

Row | Compound | kfast (rate constant for the fast phase of the binding reaction) (CYP3A4 [3]) | IC50 (CYP3A4 [1]; [8]) | 442 nm absorption of the ferrous ligand-bound form of CYP3A4 (CYP3A4 [4]) | ΔTm (ligand-dependent changes in the melting temperature of CYP3A4) (CYP3A4 [5]) | Kd (CYP3A4 [2]; [9]) | also measured
1 | CC(C)(C)OC(=O)N[C@H](CN[C@@H](Cc1ccccc1)C(=O)NCCc1cccnc1)Cc1ccccc1 [Compound 01ERS089, N-BOC-Trp-S-N-Ph-Cys-CONH-Et-Pyr] | – | – | – | – | – | IC50 (CYP3A4 [1]): 0.39 µM; Kd (CYP3A4 [2]; calculated from plots of absorbance change versus inhibitor concentration (FIG. 37), read-out: Kd (binding affinity to CYP3A4)): 0.13 µM
2 | NCCc1ccccn1 [aminoethylpyridine, reference compound] | 0.6 ± 0.1 s⁻¹ | 5000 ± 600 µM | undetectable | −0.1 °C | 2500 ± 200 µM | –
3 | CC(C)(C)OC(=O)N[C@H](CSCCC(=O)NCc1cccnc1)Cc1c[nH]c2ccccc12 [Compound 15b] | 8.0 ± 1.5 s⁻¹ | 0.2 µM and 0.21 µM | pronounced | 0.2 °C | 0.5 ± 0.1 µM | change of CYP3A4 Tm / thermal stability upon complex formation (CYP3A4 [5]): slightly increased
4 | CC(C)(C)OC(=O)N[C@H](CSCCC(=O)NCc1cccnc1)CC1CCCCC1 [Compound 11] | 4.0 ± 0.2 s⁻¹ | 30 µM | considerably smaller | −2 ± 0.4 °C | 10 ± 1 µM | –
5 | NCCCCCC(=O)NCc1cccnc1 [Compound 5] | – | 1000 ± 150 µM | – | −0.2 °C | – | 442 nm absorption of the ferrous ligand-bound form of CYP3A4 (CYP3A4 [6]): undetectable; rate constants of monophasic binding reaction (CYP3A4 [3]): 0.5 to 0.8 s⁻¹; Kd (CYP3A4 [2]; two binding sites, read-out: KS, second of two binding sites): 4400 µM; Kd (CYP3A4 [2]; values derived from the two site saturation fit to a titration curve, two binding sites, read-out: Ks (spectral dissociation constant), two site saturation fit): 10 µM; IC50 (CYP3A4 [7]): 1000 to 4000 µM
6 | CC(C)(C)OC(=O)NCCCCCC(=O)NCc1cccnc1 [Compound 4] | 20 s⁻¹ and 20 ± 2 s⁻¹ | 75 µM | considerably smaller | −0.2 °C | 105 ± 10 µM | –
7 | CC(C)(C)OC(=O)N[C@H](CSCCC(=O)NCc1cccnc1)Cc1ccccc1 [Compound 15a] | 1.7 s⁻¹ and 1.7 ± 0.2 s⁻¹ | 0.5 µM and 0.52 µM | pronounced | −1 ± 0.2 °C | 0.9 ± 0.1 µM | –
8 | c1ccncc1 [pyridine, reference compound] | 0.5 ± 0.1 s⁻¹ | – | undetectable | 0 °C | 4500 ± 400 µM | IC50 (CYP3A4 [1]; IC50 (concentration required for half-maximal inactivation of recombinant CYP3A4), BFC 50 μM, 100 μM NADPH, room temperature, pH 7.4): 4000 ± 500 µM; IC50 (CYP3A4 [1]; IC50 on the BFC debenzylation activity of CYP3A4, one range given for pyridine, aminoethylpyridine and 5 together): 1000 to 4000 µM
